Measured values published in US20230416329A1, “A PEPTIDE WITH DISULFIDE BONDS AND INHIBITORY ACTIVITY AGAINST SERINE PROTEASES, DERIVED HYBRID PEPTIDES THEREOF, AND USES THEREOF” (INSTITUTE OF MATERIA MEDICA , CHINESE ACADEMY OF MEDICAL …, priority 2020, published 2023).
Bridge positions count the residues as written; N and C are the ends. Ends that are not written are not given here. PEG = not defined here

Legend:
[1] = tested on: normal ICR mice; experiment: In vivo hypoglycemic activity of GLP-1 analogues, subcutaneous administration, oral glucose loading; design: species or system mouse; details: normal ICR mice, 1 μmol/kg s.c., glucose 2 g/kg by gavage
Experimental: FIG. 21. In vivo hypoglycemic activities of GLP-1 analogues by subcutaneous administration. Normal ICR mice were subcutaneously injected with GLP-1 and its analogues or corresponding volumes of saline (1.0 μmol/kg, n=10). After 30 min, glucose solution (2 g/kg) was administered by gavage, and blood was collected from the tail tip at 30, 60, and 120 min after glucose administration. Blood glucose was measured using glucose oxidase method, and blood glucose values and area under the blood glucose curve (AUC) were calculated at each timepoint.
The day before the experiment, all of the animals were fasted for 15-16 hours with water ad libitum. On the day of the experiment, the animals were randomly divided according to body weight (n=10). Firstly, the blood was collected from the tail tip at 0 hour, and then the animals were administered subcutaneously with GLP-1 analog (SEQ ID NOs: 194-201, 1 μmol/kg) or saline. After 30 minutes, the animals were administered by gavage with glucose solution (2 g/kg), and the blood was collected from the tail tip at 30, 60, and 120 minutes later. Blood glucose was measured using glucose oxidase method. The blood glucose and area under the blood glucose-time curve (AUC) were calculated.

[2] = tested on: normal ICR mice; experiment: In vivo hypoglycemic activity of GLP-1 analogues, duodenal administration, oral glucose loading; design: species or system mouse; details: normal ICR mice, 10 μmol/kg duodenal, glucose 2 g/kg by gavage
Experimental: FIG. 22. In vivo hypoglycemic activities of GLP-1 analogues by duodenal administration. Normal ICR mice were anesthetized with inhalation of ether, and the duodenum was surgically removed and injected with GLP-1 and its analogues or a corresponding volume of saline ([…], n=9-11), and finally the incision was sewed. After 15 min, glucose solution (2 g/kg) was administered by gavage, and blood was collected from the tail tips at 15, 30, and 60 min after glucose administration. Blood glucose was measured using glucose oxidase method, and blood glucose values and area under the blood glucose curve (AUC) were calculated at each timepoint.
Drug delivery technology can use enteric coating technology to achieve oral administration targeting the small intestine. In order to test the feasibility of direct small intestinal administration of GLP-1, the present invention designs duodenal administration. The experimental process is as follows: The day before the experiment, all of the animals were fasted for 15-16 hours with water ad libitum. On the day of the experiment, the animals were randomly divided according to body weight (n=9-11 or 14-15 for combined administration). Firstly, the blood was collected from the tail tip at 0 hours, and then the animals were anesthetized by inhaling ether. A small incision was made near the underside of the stomach using surgical scissors, and the duodenum was carefully removed and administered with GLP-1 analogs (SEQ ID NOs: 194-209, 10 μmol/kg) or saline. Finally, the wound was sutured. After 15 minutes, the glucose solution (2 g/kg) was administered by gavage, and the blood were collected from the tail tips at 15, 30, and 60 minutes after glucose administration. Blood glucose was measured using the glucose oxidase method. The blood glucose at each moment and area under the blood glucose-time curve (AUC) were calculated.
AUC mg×h/dL)=(BG0+BG15)×15/60+(BG15+BG30)×15/60+(BG30+BG60)×30/60. BG0, BG15, BG30, and BG60 represent blood glucose levels at 0, 15, 30, and 60 minutes after glucose loading, respectively.

## Ac-Cys-Gly-Arg-Ala-Thr-Lys-Ser-Ile-Pro-Pro-Ile-Cys-Phe-Gly-Gly-Ile-Pro-Ile-Gly-Gly-His-Ala-Glu-Gly-Thr-Phe-Thr-Ser-Asp-Val-Ser-Ser-Tyr-Leu-Glu-Gly-Gln-Ala-Ala-Lys-Glu-Phe-Ile-Ala-Trp-Leu-Val-Lys-Gly-Arg-Gly-Gly-Lys-NH2 (Ac-CGRATKSIPPICFGGIPIGGHAEGTFTSDVSSYLEGQAAKEFIAWLVKGRGGK-NH2; disulfide 1-12 (inferred)) [Acetylated and Amidated SEQ ID NO: 198]
[1]
  hypoglycemic activity, subcutaneous injection (in words): did not show any significant differences in their hypoglycemic activity compared to the unmodified molecules

## Ac-Gly-Arg-Cys-Thr-Lys-Ser-Ile-Pro-Pro-Ile-Cys-Phe-Pro-Gly-Gly-Ile-Pro-Ile-Gly-Gly-His-Ala-Glu-Gly-Thr-Phe-Thr-Ser-Asp-Val-Ser-Ser-Tyr-Leu-Glu-Gly-Gln-Ala-Ala-Lys-Glu-Phe-Ile-Ala-Trp-Leu-Val-Lys-Gly-Arg-Gly-Gly-Lys-NH2 (Ac-GRCTKSIPPICFPGGIPIGGHAEGTFTSDVSSYLEGQAAKEFIAWLVKGRGGK-NH2; disulfide 3-11 (inferred)) [Acetylated and Amidated SEQ ID NO: 194]
[1]
  hypoglycemic activity, subcutaneous injection (in words): did not show any significant differences in their hypoglycemic activity compared to the unmodified molecules

## Ac-Gly-Ile-Pro-Ile-Gly-Gly-His-Ala-Glu-Gly-Thr-Phe-Thr-Ser-Asp-Val-Ser-Ser-Tyr-Leu-Glu-Gly-Gln-Ala-Ala-Lys-Glu-Phe-Ile-Ala-Trp-Leu-Val-Lys-Gly-Arg-Gly-Gly-Lys-Gly-Arg-Cys-Thr-Lys-Ser-Ile-Pro-Pro-Ile-Cys-Phe-Pro-NH2 (Ac-GIPIGGHAEGTFTSDVSSYLEGQAAKEFIAWLVKGRGGKGRCTKSIPPICFP-NH2; disulfide 42-50 (inferred)) [Acetylated and Amidated SEQ ID NO: 196]
[1]
  hypoglycemic activity, subcutaneous injection (in words): did not show any significant differences in their hypoglycemic activity compared to the unmodified molecules

## Ac-Gly-Ile-Pro-Ile-Gly-Gly-His-Ala-Glu-Gly-Thr-Phe-Thr-Ser-Asp-Val-Ser-Ser-Tyr-Leu-Glu-Gly-Gln-Ala-Ala-Lys-Glu-Phe-Ile-Ala-Trp-Leu-Val-Lys-Gly-Arg-Gly-Gly-Lys-Gly-Cys-Gly-Arg-Ala-Thr-Lys-Ser-Ile-Pro-Pro-Ile-Cys-Phe-NH2 (Ac-GIPIGGHAEGTFTSDVSSYLEGQAAKEFIAWLVKGRGGKGCGRATKSIPPICF-NH2; disulfide 41-52 (inferred)) [Acetylated and Amidated SEQ ID NO: 200]
[1]
  hypoglycemic activity, subcutaneous injection (in words): did not show any significant differences in their hypoglycemic activity compared to the unmodified molecules

## Cys-Gly-Arg-Ala-Thr-Lys-Ser-Ile-Pro-Pro-Ile-Cys-Phe-Gly-Gly-Gln-Arg-Phe-Ser-Arg-Gly-Gly-His-Ala-Glu-Gly-Thr-Phe-Thr-Ser-Asp-Val-Ser-Ser-Tyr-Leu-Glu-Gly-Gln-Ala-Ala-Lys-Glu-Phe-Ile-Ala-Trp-Leu-Val-Lys-Gly-Arg-Gly-Gly-Lys (CGRATKSIPPICFGGQRFSRGGHAEGTFTSDVSSYLEGQAAKEFIAWLVKGRGGK; Synthetic construct BT9-N-GLP-1) [SEQ ID NO: 199]
[1]
  hypoglycemic activity, subcutaneous injection (in words): significantly reduced the blood glucose levels at 30 and 60 minutes after oral glucose loading and the AUC
[2]
  hypoglycemic activity, duodenal administration (in words): did not influence the blood glucose levels

## Gly-Arg-Cys-Thr-Lys-Ser-Ile-Pro-Pro-Ile-Cys-Phe-Pro-Gly-Gly-Gln-Arg-Phe-Ser-Arg-Gly-Gly-His-Ala-Glu-Gly-Thr-Phe-Thr-Ser-Asp-Val-Ser-Ser-Tyr-Leu-Glu-Gly-Gln-Ala-Ala-Lys-Glu-Phe-Ile-Ala-Trp-Leu-Val-Lys-Gly-Arg-Gly-Gly-Lys (GRCTKSIPPICFPGGQRFSRGGHAEGTFTSDVSSYLEGQAAKEFIAWLVKGRGGK; Synthetic construct BT1-N-GLP-1) [SEQ ID NO: 195]
[1]
  hypoglycemic activity, subcutaneous injection (in words): significantly reduced the blood glucose levels at 30 and 60 minutes after oral glucose loading and the AUC
[2]
  hypoglycemic activity, duodenal administration (in words): did not influence the blood glucose levels

## Gly-Gln-Arg-Phe-Ser-Arg-Gly-Gly-His-Ala-Glu-Gly-Thr-Phe-Thr-Ser-Asp-Val-Ser-Ser-Tyr-Leu-Glu-Gly-Gln-Ala-Ala-Lys-Glu-Phe-Ile-Ala-Trp-Leu-Val-Lys-Gly-Arg-Gly-Gly-Lys-Gly-Arg-Cys-Thr-Lys-Ser-Ile-Pro-Pro-Ile-Cys-Phe-Pro (GQRFSRGGHAEGTFTSDVSSYLEGQAAKEFIAWLVKGRGGKGRCTKSIPPICFP; Synthetic construct N-GLP-1-BT1) [SEQ ID NO: 197]
[1]
  hypoglycemic activity, subcutaneous injection (in words): significantly reduced the blood glucose levels at 30 and 60 minutes after oral glucose loading and the AUC
[2]
  hypoglycemic activity, duodenal administration (in words): did not influence the blood glucose levels

## Gly-Gln-Arg-Phe-Ser-Arg-Gly-Gly-His-Ala-Glu-Gly-Thr-Phe-Thr-Ser-Asp-Val-Ser-Ser-Tyr-Leu-Glu-Gly-Gln-Ala-Ala-Lys-Glu-Phe-Ile-Ala-Trp-Leu-Val-Lys-Gly-Arg-Gly-Gly-Lys-Gly-Cys-Gly-Arg-Ala-Thr-Lys-Ser-Ile-Pro-Pro-Ile-Cys-Phe (GQRFSRGGHAEGTFTSDVSSYLEGQAAKEFIAWLVKGRGGKGCGRATKSIPPICF; Synthetic construct N-GLP-1-BT9) [SEQ ID NO: 201]
[1]
  hypoglycemic activity, subcutaneous injection (in words): significantly reduced the blood glucose levels at 30 and 60 minutes after oral glucose loading and the AUC
[2]
  hypoglycemic activity, duodenal administration (in words): did not influence the blood glucose levels

## PEG-Gly-Ile-Pro-Ile-Gly-Gly-His-Ala-Glu-Gly-Thr-Phe-Thr-Ser-Asp-Val-Ser-Ser-Tyr-Leu-Glu-Gly-Gln-Ala-Ala-Lys-Glu-Phe-Ile-Ala-Trp-Leu-Val-Lys-Gly-Arg-Gly-Gly-Lys-Gly-Cys-Gly-Arg-Ala-Thr-Lys-Ser-Ile-Pro-Pro-Ile-Cys-Phe ({PEG}-GIPIGGHAEGTFTSDVSSYLEGQAAKEFIAWLVKGRGGKGCGRATKSIPPICF; disulfide 41-52 (inferred); reading uncertain; also: printed as PEG-Gly-Ile-Pro-Ile-Gly-Gly-His-Ala-Glu-Gly-Thr-Phe-Thr-Ser-Asp-Val-Ser-Ser-Tyr-Leu-Glu-Gly-Gln-Ala-Ala-Lys-Glu-Phe-Ile-Ala-Trp-Leu-Val-Lys-Gly-Arg-Gly-Gly-Lys-Gly-Cys-Gly-Arg-Ala-Thr-Lys-Ser-Ile-Pro-Pro-Ile-Cys-Phe) [N-Terminal PEGylated SEQ ID NO: 200]
[1]
  hypoglycemic activity, subcutaneous injection (in words): did not show any significant differences in their hypoglycemic activity compared to the unmodified molecules

## PEG-Phe-Cys-Thr-Tyr-Ser-Ile-Pro-Pro-Gln-Cys-Tyr-Gly-Gly-Ile-Pro-Ile-Gly-Gly-His-Ala-Glu-Gly-Thr-Phe-Thr-Ser-Asp-Val-Ser-Ser-Tyr-Leu-Glu-Gly-Gln-Ala-Ala-Lys-Glu-Phe-Ile-Ala-Trp-Leu-Val-Lys-Gly-Arg-Gly-Gly-Lys ({PEG}-FCTYSIPPQCYGGIPIGGHAEGTFTSDVSSYLEGQAAKEFIAWLVKGRGGK; disulfide 2-10 (inferred); reading uncertain; also: printed as PEG-Phe-Cys-Thr-Tyr-Ser-Ile-Pro-Pro-Gln-Cys-Tyr-Gly-Gly-Ile-Pro-Ile-Gly-Gly-His-Ala-Glu-Gly-Thr-Phe-Thr-Ser-Asp-Val-Ser-Ser-Tyr-Leu-Glu-Gly-Gln-Ala-Ala-Lys-Glu-Phe-Ile-Ala-Trp-Leu-Val-Lys-Gly-Arg-Gly-Gly-Lys) [N-Terminal PEGylated SEQ ID NO: 204]
[1]
  hypoglycemic activity, subcutaneous injection (in words): did not show any significant differences in their hypoglycemic activity compared to the unmodified molecules
